# From patent US7879887B2, “α-amino acid derivatives and medicaments containing the same as an active ingredient” (Nissan Chemical Industries, Ltd., priority 2006, dated 2011)
# Columns and labels:
# [1] = test system: colon carcinoma cell line SW620; test: Cell proliferation inhibitory activity, SW620; assay type: cell-based, human; settings: Homo sapiens, SW-620, 96 h, cells counted 4 days later with Cell Counting Kit-8
# Procedure, shortened: (§1)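 IC50 values come from a 4-day proliferation assay in which cells were cultured with multiple test compound concentrations and quantified by Cell Counting Kit-8.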
# CDK1/Cyclin B complex = target: T1, CDK1/Cyclin B complex (Homo sapiens, UniProt P06493); test: In vitro kinase assay, CDK1/Cyclin B complex; assay type: biochemical; settings: recombinant protein (Upstate)
# T1 construct: purchased Upstate Inc. 14-450
# T1 sequence (P06493 whole entry): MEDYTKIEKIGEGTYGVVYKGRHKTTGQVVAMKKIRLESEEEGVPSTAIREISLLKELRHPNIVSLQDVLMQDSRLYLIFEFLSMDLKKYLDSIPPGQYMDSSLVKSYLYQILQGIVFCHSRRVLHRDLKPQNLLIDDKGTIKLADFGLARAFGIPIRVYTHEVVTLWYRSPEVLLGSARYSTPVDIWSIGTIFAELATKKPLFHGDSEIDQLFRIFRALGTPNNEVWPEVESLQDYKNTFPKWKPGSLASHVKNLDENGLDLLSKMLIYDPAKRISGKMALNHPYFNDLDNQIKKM
# T1 sequence (P14635 whole entry partner): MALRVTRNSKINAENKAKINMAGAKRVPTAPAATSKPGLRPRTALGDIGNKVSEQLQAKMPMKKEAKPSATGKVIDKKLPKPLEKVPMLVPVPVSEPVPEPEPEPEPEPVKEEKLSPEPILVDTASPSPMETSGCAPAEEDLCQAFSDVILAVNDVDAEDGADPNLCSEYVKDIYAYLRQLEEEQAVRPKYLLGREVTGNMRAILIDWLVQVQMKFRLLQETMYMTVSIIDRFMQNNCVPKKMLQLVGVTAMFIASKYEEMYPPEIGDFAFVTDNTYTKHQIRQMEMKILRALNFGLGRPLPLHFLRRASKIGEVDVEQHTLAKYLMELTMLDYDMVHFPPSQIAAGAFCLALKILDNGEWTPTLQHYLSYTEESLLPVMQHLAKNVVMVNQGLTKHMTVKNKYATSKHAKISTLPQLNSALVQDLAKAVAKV
# Procedure, shortened: (§2)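 Recombinant human enzymes assayed per supplier protocol. IC50 derived with compound-free wells set as 0% inhibition and compound- and enzyme-free wells as 100% inhibition.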
# Aurora A = target: T2, Aurora A (Homo sapiens, UniProt O14965); test: In vitro kinase assay, Aurora A; assay type: biochemical; settings: recombinant protein (Upstate)
# T2 construct: purchased Upstate Inc. 14-511
# T2 sequence (O14965 1-403): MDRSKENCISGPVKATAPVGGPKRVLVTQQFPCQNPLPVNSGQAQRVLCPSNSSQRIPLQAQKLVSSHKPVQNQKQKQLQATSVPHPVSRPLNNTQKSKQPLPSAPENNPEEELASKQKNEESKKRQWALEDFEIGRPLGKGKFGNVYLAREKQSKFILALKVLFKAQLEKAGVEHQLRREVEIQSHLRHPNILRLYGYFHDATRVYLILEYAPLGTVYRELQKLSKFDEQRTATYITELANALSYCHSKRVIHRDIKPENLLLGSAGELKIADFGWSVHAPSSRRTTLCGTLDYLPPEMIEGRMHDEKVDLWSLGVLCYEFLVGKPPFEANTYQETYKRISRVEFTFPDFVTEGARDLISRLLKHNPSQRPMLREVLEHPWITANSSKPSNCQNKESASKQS
# Procedure, shortened: as §2
# CDK2/Cyclin E complex = CDK2/Cyclin E complex (Homo sapiens, UniProt P24941); test: In vitro kinase assay, CDK2/Cyclin E complex; assay type: biochemical; settings: recombinant protein (Upstate); read-out: CDK2/cyclinE IC50
# Protocol: Inhibitory activity against Aurora A, CDK1/Cyclin B complex, CDK2/Cyclin E complex and CDK3/Cyclin E complex were measured by in vitro kinase assay using recombinant proteins.
# [2] = test system: ovarian cancer cell line IGROV1; test: Cell proliferation inhibitory activity, IGROV1; assay type: cell-based; settings: Homo sapiens, IGROV-1, 96 h, cells counted 4 days later with Cell Counting Kit-8
# Protocol: (§3) Evaluations were carried out using colon carcinoma cell line SW620 (Cat. No. CCL-227), lung carcinoma cell line NCI-H460 (Cat. No. HTB-177), prostate cancer cell line DU 145 (Cat. No. HTB-81), breast cancer cell line MDA-MB-231 (Cat. No. HTB26) and leukemia cell line KG-1a (Cat. No. CCL-246.1) purchased from ATCC, pancreatic cancer cell line MIAPaCa-2 (Cat. No. CRL-1420) purchased from Dainippon Pharmaceutical, and ovarian cancer cell line IGROV1 received from the Netherland Cancer Institute. The cells were cultured under the conditions recommended by the supplier for each cell line, or with respect to IGROV1, according to the method described in Cancer Res. 59: 4559-4563, 1999. Cells suspended in media were added to solutions containing the test substances at various concentrations followed by culturing in a 5% CO2 incubator at 37° C. The numbers of cells were counted 4 days later with the Cell Counting Kit-8. IC50 values were calculated by assigning measured values in the case of not containing a test substance to an inhibition of 0%, and assigning measured values in the case of not containing a test substance or cells to an inhibition of 100%.
# leukemia cell line KG-1a = test: Cell proliferation inhibitory activity, KG-1a; assay type: cell-based; settings: Homo sapiens, 96 h, cells counted 4 days later with Cell Counting Kit-8
# Procedure, shortened: as §1
# [3] = test system: breast cancer cell line MDA-MB-231; test: Cell proliferation inhibitory activity, MDA-MB-231; assay type: cell-based; settings: Homo sapiens, 96 h, cells counted 4 days later with Cell Counting Kit-8
# Protocol: as §3
# [4] = test system: lung carcinoma cell line NCI-H460; test: Cell proliferation inhibitory activity, NCI-H460; assay type: cell-based; settings: Homo sapiens, 96 h, cells counted 4 days later with Cell Counting Kit-8
# Procedure, shortened: as §1
# [5] = test system: pancreatic cancer cell line MIAPaCa-2; test: Cell proliferation inhibitory activity, MIAPaCa-2; assay type: cell-based; settings: Homo sapiens, MIA PaCa-2, 96 h; cells counted 4 days later, Cell Counting Kit-8
# Protocol: as §3
# [6] = test system: prostate cancer cell line DU 145; test: Cell proliferation inhibitory activity, DU 145; assay type: cell-based, human; settings: Homo sapiens, 96 h, cells counted 4 days later with Cell Counting Kit-8
# Procedure, shortened: as §1
SMILES,IC50 [1],IC50 (CDK1/Cyclin B complex),IC50 (Aurora A),IC50 (CDK2/Cyclin E complex),IC50 [2],IC50 (leukemia cell line KG-1a),IC50 [3],IC50 [4],IC50 [5],IC50 [6]
CC(C)(Nc1ccc(Cl)c(C(=O)NCCCC(=O)O)c1)C(=O)Nc1nc2c(C(F)(F)F)cc3[nH]ncc3c2s1 [compound 144],3.3 µM,0.297 µM,0.088 µM,0.249 µM,,,,,,
O=C(CNc1ccc(Cl)c(O)c1)Nc1nc2ccc3[nH]ncc3c2s1 [compound 6],1.5 µM,0.255 µM,0.257 µM,0.026 µM,4.3 µM,< 0.1 µM,2.6 µM,,,
CC(C)(Nc1cccc(O)c1)C(=O)Nc1nc2ccc3[nH]ncc3c2s1 [compound 33],0.4 µM,0.115 µM,0.029 µM,0.033 µM,2.7 µM,< 0.1 µM,2 µM,3.6 µM,4.5 µM,1.7 µM
CCC(=O)Nc1cc(NC(C)(C)C(=O)Nc2nc3ccc4[nH]ncc4c3s2)ccc1Cl [compound 129],0.8 µM,,0.113 µM,0.086 µM,4.8 µM,< 0.1 µM,,2.7 µM,,2.6 µM
CCNC(=O)c1cc(NC(C)(C)C(=O)Nc2nc3c(C(F)(F)F)cc4[nH]ncc4c3s2)ccc1F [compound 58],0.5 µM,0.186 µM,,0.107 µM,,0.3 µM,4.7 µM,1.3 µM,4 µM,0.9 µM
CC(=O)Nc1cc(NC(C)(C)C(=O)Nc2nc3c(C(F)(F)F)cc4[nH]ncc4c3s2)ccc1Cl [compound 53],1.3 µM,0.42 µM,0.227 µM,0.051 µM,,0.3 µM,4 µM,2.4 µM,4.7 µM,1.5 µM
CC(C)(Nc1ccc(Cl)cc1)C(=O)Nc1nc2ccc3[nH]ncc3c2s1 [compound 35],0.7 µM,,0.428 µM,0.045 µM,,< 0.1 µM,,,,2.5 µM
CCNC(=O)c1cc(NC(C)(C)C(=O)Nc2nc3c(C(F)(F)F)cc4[nH]ncc4c3s2)ccc1Cl [compound 60],0.3 µM,0.073 µM,0.163 µM,0.037 µM,,0.3 µM,4.5 µM,1.5 µM,4.4 µM,0.9 µM
CC(=O)Nc1cc(NC2(C(=O)Nc3nc4ccc5[nH]ncc5c4s3)CC2)ccc1F [compound 120],0.8 µM,,0.164 µM,0.064 µM,4.8 µM,< 0.1 µM,,1.9 µM,,3.3 µM
CCC(=O)Nc1cc(NC2(C(=O)Nc3nc4ccc5[nH]ncc5c4s3)CC2)ccc1F [compound 121],0.5 µM,,0.307 µM,0.11 µM,4.8 µM,< 0.1 µM,,2.2 µM,4.6 µM,3.4 µM
CC(C)(Nc1cccc(S(N)(=O)=O)c1)C(=O)Nc1nc2c(C(F)(F)F)cc3[nH]ncc3c2s1 [compound 82],0.2 µM,0.02 µM,0.014 µM,0.015 µM,0.9 µM,< 0.1 µM,2.1 µM,0.4 µM,2.5 µM,0.4 µM
CC(C)(Nc1ccc(Cl)c(O)c1)C(=O)Nc1nc2c(C(F)(F)F)cc3[nH]ncc3c2s1 [compound 95],0.4 µM,0.105 µM,0.34 µM,0.023 µM,,0.1 µM,,1.2 µM,4.6 µM,1.1 µM
CCOC(=O)c1cc(NC2(C(=O)Nc3nc4ccc5[nH]ncc5c4s3)CC2)ccc1Cl [compound 118],2 µM,,0.236 µM,0.116 µM,,< 0.1 µM,,,,
CC(C)(Nc1ccc(Cl)c(C(=O)NC2CC2)c1)C(=O)Nc1nc2c(C(F)(F)F)cc3[nH]ncc3c2s1 [compound 75],0.5 µM,0.128 µM,0.472 µM,0.131 µM,,< 0.1 µM,3.6 µM,2 µM,3.9 µM,1.1 µM
CC(C)(Nc1ccc(Cl)c(C(=O)NCC(N)=O)c1)C(=O)Nc1nc2c(C(F)(F)F)cc3[nH]ncc3c2s1 [compound 85],0.3 µM,0.0018 µM,0.071 µM,0.0024 µM,1.8 µM,< 0.1 µM,2.5 µM,1.2 µM,1.8 µM,1.3 µM
CC(=O)Nc1cc(NC(C)(C)C(=O)Nc2nc3ccc4[nH]ncc4c3s2)ccc1Cl [compound 128],0.9 µM,,0.039 µM,0.028 µM,3.5 µM,< 0.1 µM,4.6 µM,1.1 µM,3.2 µM,1.7 µM
CNC(=O)c1cc(NC2(C(=O)Nc3nc4ccc5[nH]ncc5c4s3)CC2)ccc1Cl [compound 126],1.5 µM,0.145 µM,0.058 µM,0.039 µM,,< 0.1 µM,,4.2 µM,,3.7 µM
O=C(Nc1nc2ccc3[nH]ncc3c2s1)C1(Nc2ccc(Cl)cc2)CC1 [compound 117],0.5 µM,0.358 µM,0.317 µM,0.019 µM,2.7 µM,< 0.1 µM,2.5 µM,2.8 µM,,2.2 µM
CNC(=O)c1cc(NC(C)(C)C(=O)Nc2nc3c(C(F)(F)F)cc4[nH]ncc4c3s2)ccc1Cl [compound 55],0.3 µM,0.073 µM,0.185 µM,0.044 µM,2.7 µM,< 0.1 µM,3.2 µM,0.8 µM,4.1 µM,0.9 µM
O=C(Nc1nc2ccc3[nH]ncc3c2s1)C(CO)Nc1ccc(Cl)cc1 (stereo not shown) [compound 132],0.6 µM,0.379 µM,,0.02 µM,1.4 µM,< 0.1 µM,1.9 µM,1.7 µM,3.7 µM,1.4 µM
CC(=O)Nc1cc(NCC(=O)Nc2nc3ccc4[nH]ncc4c3s2)ccc1Cl [compound 16],1.2 µM,,0.278 µM,0.037 µM,,< 0.1 µM,4.4 µM,3.2 µM,4.4 µM,3.2 µM
CC(=O)Nc1cc(NC(C)(C)C(=O)Nc2nc3c(C(F)(F)F)cc4[nH]ncc4c3s2)ccc1F [compound 81],0.8 µM,0.377 µM,0.444 µM,0.093 µM,2.4 µM,< 0.1 µM,4.2 µM,1.3 µM,4.7 µM,1.1 µM
CC(C)(Nc1ccc(Cl)c(C(N)=O)c1)C(=O)Nc1nc2c(C(F)(F)F)cc3[nH]ncc3c2s1 [compound 135],0.3 µM,0.083 µM,0.04 µM,0.052 µM,1.5 µM,< 0.1 µM,1.6 µM,0.9 µM,4.1 µM,0.5 µM
